Data set [1] in a line: Permeation enhancement of enalapril, clonidine and acyclovir using pyroglutamic esters. The format is in vitro ADME, Elaphae obsolete (black rat snake). The following applies: for % delivered in 48 hrs ± SD: no enhancer; for Flux of acyclovir ± SD / % of acyclovir delivered in 48 hrs ± SD: acyclovir with enhancer; for Flux of clonidine ± SD / % of clonidine delivered in 48 hrs ± SD: clonidine with enhancer; for Flux of enalapril ± SD / % of enalapril delivered in 48 hrs ± SD: enalapril with enhancer. The procedure:
(§1) In the examples given below, the permeation enhancement was determined using an in vitro diffusion cell procedure. The molts of adult Elaphae obsolete (black rat snake) was used as the model for stratum corneum membrane (R. Ibuki, Ph.D. Thesis, University of Kansas, 1985). The shed snake skin has great similarities to human skin in terms of thickness, composition of constituents and structure and has been proposed as the most suitable model for human stratum corneum for permeability studies.
Glass diffusion cells consisting of a donor and receptor cells separated by the shed snake skin membrane were assembled using circular O-ring joints held together by spring clamps. The exposed membrane surface area of the diffusion cell measured 1.8 cm^2. Before being mounted in the diffusion cell approximately 25 mg of an ointment containing the therapeutic agent and the penetration enhancer was carefully applied to the membrane and was spread over the desired area. The receptor side was filled with approximately 8.5 ml of buffer solution consisting of 1.5×10^-1 M NaCl, 5×10^-4 NaH2 PO4 and 2.0×10^-4 M Na2 HPO4 adjusted to pH 7.2 with NaOH. The diffusion cell was immersed vertically in a water bath maintained at 32°±1° C. The receptor cell was stirred constantly with a magnetic stirrer. To determine the amount of compound penetrated through the snake skin membrane from the upper chamber, 0.2 ml samples were withdrawn at varying intervals from the receptor chamber using a syringe. An equal amount of fresh buffer was replenished during sampling. The concentration of drug penetrated in each diffusion cell was measured using high pressure liquid chromatography. […]

A further data set can be described thus: Aqueous solubility. It is filed as physicochemical. The following applies: water, at 32°.
The format of data set [2] is in vitro ADME, Elaphae obsolata (black rat snake). The following applies: n = 5; for Flux of 2,3-dihydro-5-hydroxy-6-(o-hydroxymethylcinnamyl)benzofuran ± SD / % of 2,3-dihydro-5-hydroxy-6-(o-hydroxymethylcinnamyl)benzofuran delivered in 48 hrs ± SD: 1% (w/w) drug with 15% (w/w) enhancer; for Flux of 2,3-dihydro-5-hydroxy-6-(o-hydroxymethylcinnamyl)benzofuran ± SD: 32°. The procedure: The transport of 2,3-dihydro-5-hydroxy-6-(o-hydroxymethylcinnamyl)benzofuran, through shed snake skin, which has been reported to be a good model for human stratum corneaum in terms of thickness, compositional features, structure and permeability, was measured in the presence of decyl, dodecyl and oleyl esters of L-pyroglutamic acid used as penetration enhancers.
Because of the poor aqueous solubility of 2,3-dihydro 5-hydroxy-6-(o-hydroxymethylcinnamyl)benzofuran (<0.0002 mg/ml at 32°), 20% propyleneglycol in isotonic pH 7.2 phosphate buffer was used as the receptor medium. […] A weighed amount of a petrolatum ointment (30-35 mg) containing 1% (w/w) of 2,3-dihydro-5-hydroxy-6-(o-hydroxymethylcinnamyl)benzofuran with or without 15% (w/w) of the permeation enhancer was applied to 1.76 cm^2 area of shed skin of adult Elaphae obsolata (black rat snake), and held between the donor and receptor compartments of a diffusion cell by O-rings. […] The diffusion cells were maintained at 32°±1° C. The amount of drug diffused into the receptor chamber was measured by HPLC using acetonitrile-water (2:3) at a flow rate of 1 ml/min as mobile phase, a C18 column and a UV detector set at […]. The results (Table IV below) are averages of five diffusion cells for each experiment.

Data set [3] can be described thus: In vitro diffusion cell permeation through shed snake skin (Example 4). The format is in vitro ADME, Elaphae obsolete (black rat snake). The following applies: 32°; for flux of indomethacin: pH 7.2. The procedure: as §1
Glass diffusion cells consisting of a donor and receptor cells separated by the shed snake skin membrane were assembled using circular O-ring joints held together by spring clamps. The exposed membrane surface area of the diffusion cell measured 1.8 cm^2. Before being mounted in the diffusion cell approximately 25 mg of an ointment containing the therapeutic agent and the penetration enhancer was carefully applied to the membrane and was spread over the desired area. The receptor side was filled with approximately 8.5 ml of buffer solution consisting of 1.5×10^-1 M NaCl, 5×10^-4 NaH2 PO4 and 2.0×10^-4 M Na2 HPO4 adjusted to pH 7.2 with NaOH. The diffusion cell was immersed vertically in a water bath maintained at 32°±1° C. The receptor cell was stirred constantly with a magnetic stirrer. To determine the amount of compound penetrated through the snake skin membrane from the upper chamber, 0.2 ml samples were withdrawn at varying intervals from the receptor chamber using a syringe. An equal amount of fresh buffer was replenished during sampling. The concentration of drug penetrated in each diffusion cell was measured using high pressure liquid chromatography. The results reported for each experiment are the average values from 5 replicate diffusion cells.
The ointments used for the experiments contained varying concentrations of the drug and penetration enhancing agent. The drug was dispersed in the enhancer and this was then mixed with white petrolatum USP using a vortex mixer around 55° C. The ointments were kept in a water bath at 32°±1° C. for 1 day before use in in vitro studies. See Tables II and III below for the results of penetration enhancement effects.

For data set [4], the system named is skin (dorsal surface) of fuzzy rats. The data set is described as follows: Skin Irritation Study (modified Draize, 3-day occlusive dermal application). It is filed as in vivo. The arrangement: key: modified Draize index, 0-8 (erythema 0-4 + edema 0-4). The following applies: 3 DAY occlusion, 50 mg over 2 cm^2, maximum 8; for Primary Irritation Index (PII), T0-T72 hrs: irritation index ± SD (n). The protocol:
Fuzzy rats (Temple University) 150 to 200 g were used to study the dermal irritancy as the neat compounds. Test preparations (50 mg) were applied to circular gauze pads 1 mm thick and 16 mm in diameter, and affixed to the animals' dorsal surface with occlusive adhesive film (Adhesive Plaster for Patch Test, Kanebo, Ltd., Osaka, Japan). The occlusive dressings were removed after 3 or 7 days. Treated skin areas were then evaluated according to a modified Draize scoring method, and the irritation index was evaluated for each test site. The first or "primary irritation index" (PII) was an average value reflecting irritation both immediately after dressing removal, and 72 hours later. The "secondary irritation index" (SII) was determined 7 days after dressing removal. The maximum possible PII or SII was 8 with a total possible score of 4 erythema, and a total possible score of 4 for edema. A PII or SII less than or equal to 2 indicated a mild irritant, a PII or SII greater than 2 but less than or equal to 6 indicated a moderate irritant, and a PII greater than 6 indicated a severe irritant as shown in Table 1 below: […]

A further data set can be described thus: Rat plasma hydrolysis. The format is in vitro ADME. The conditions noted are these: 37° C., decanol generated, by GC, read-out: t 1/2 of enzymatic hydrolysis in rat plasma. The procedure:
Freshly prepared rat plasma (2 ml) was mixed with decyl pyroglutamate (0.6 mg) and was maintained at 37° C. Aliquots were removed at different time intervals and vortexed with heptane (1 ml) containing dodecanol as an internal standard. The decanol produced by enzymatic hydrolysis was assayed by gas chromatography on a 6'×2 mm (id) column packed with OV-101 (methylsilicone) on gas chrom Q (100-120 mesh), programmed from 125° to 175° C.

[5] abbreviates: dodecyl pyroglutamate as enhancer, weight ratio of enhancer/drug 15.
Setting [6] is: dodecyl pyroglutamate, weight ratio of enhancer/drug 0 (no enhancer).
Where [7] appears, read: weight ratio of enhancer/indomethacin 15.0.

Where two headings read alike, the source gives them in different places.

`Nc1nc2c(ncn2COCCO)c(=O)[nH]1` [Acyclovir, reference compound]: the “% delivered in 48 hrs ± SD” value in data set [1] (acyclovir) is “not detectable”.
Regarding `OCc1ccccc1C=CCc1cc2c(cc1O)CCO2` [2,3-dihydro-5-hydroxy-6-(o-hydroxymethylcinnamyl)benzofuran, reference compound], the solubility in “Aqueous solubility” was below 0.2 µg/mL. Moreover, the “Flux ± SD” value in data set [2] (1% (w/w) drug, no enhancer) is 0.19 μg/cm^2 /hr. For the same compound, in data set [2] (1% (w/w) drug, no enhancer, 48 hrs), the “% delivered in 48 hrs ± SD” value is reported as 4.24 ± 0.53%.
As to `CC(C)NCC(O)COc1cccc2ccccc12` (centres unmarked) [Propranolol], the flux of drug in data set [3] (setting [5]) is 7.410 μg/cm^2 /hr; in data set [3] (setting [6]), 3.680 μg/cm^2 /hr.
Turning to `CCCCCCCCCCCCOC(=O)[C@@H]1CCC(=O)N1` [Dodecyl pyroglutamate], in data set [4], the “Primary Irritation Index (PII), T0-T72 hrs” value (from here on “Primary Irritation Index”) worked out at 0 and the “Secondary Irritation Index (SII) at 7 days” value (shortened to “Secondary Irritation Index”) came to 0. Besides, in data set [1], the “Flux of acyclovir ± SD” value came to 0.072 ± 0.04 μg/cm^2 /hr, the “% of acyclovir delivered in 48 hrs ± SD” value is reported as 0.26 ± 0.15%, the “Flux of clonidine ± SD” value came out at 0.63 ± 0.21 μg/cm^2 /hr and the “% of clonidine delivered in 48 hrs ± SD” value was 13.2 ± 0.6%. In data set [1], the “Flux of enalapril ± SD” value is reported as 0.51 ± 0.09 μg/cm^2 /hr and the “% of enalapril delivered in 48 hrs ± SD” value is reported as 9.9 ± 2.7%. The “Flux of 2,3-dihydro-5-hydroxy-6-(o-hydroxymethylcinnamyl)benzofuran ± SD” value in data set [2] is 0.61 ± 0.04 μg/cm^2 /hr. Besides, in data set [2] (48 hrs), the “% of 2,3-dihydro-5-hydroxy-6-(o-hydroxymethylcinnamyl)benzofuran delivered in 48 hrs ± SD” value turned out to be 13.4 ± 1.5%. Further, the flux of indomethacin in data set [3] (setting [7]) is reported as 0.630 μg/cm^2 /hr.
Turning to `CCCCCCCC/C=C\CCCCCCCCOC(=O)[C@@H]1CCC(=O)N1` [Oleyl pyroglutamate], in data set [4], the “Primary Irritation Index” value is given as 0.1 ± 0.3 and the “Secondary Irritation Index” value worked out at 0. In addition, in data set [1], the “Flux of clonidine ± SD” value amounted to 0.26 ± 0.15 μg/cm^2 /hr, the “% of clonidine delivered in 48 hrs ± SD” value was 4.4 ± 1.4%, the “Flux of enalapril ± SD” value was found to be 0.92 ± 0.22 μg/cm^2 /hr and the “% of enalapril delivered in 48 hrs ± SD” value is on record as 18.7 ± 5.4%. Moreover, the “Flux of 2,3-dihydro-5-hydroxy-6-(o-hydroxymethylcinnamyl)benzofuran ± SD” value in data set [2] amounted to 0.95 ± 0.09 μg/cm^2 /hr. Further, the “% of 2,3-dihydro-5-hydroxy-6-(o-hydroxymethylcinnamyl)benzofuran delivered in 48 hrs ± SD” value in data set [2] (48 hrs) amounted to 21.7 ± 1.1%. The flux of indomethacin in data set [3] (setting [7]) was determined as 0.450 μg/cm^2 /hr.
As to `Clc1cccc(Cl)c1N=C1NCCN1` [Clonidine, reference compound], the “% delivered in 48 hrs ± SD” value in data set [1] (clonidine, n = 12) was 1.1 ± 0.3%.
For `CCCCCCCCCCOC(=O)[C@@H]1CCC(=O)N1` [Decyl pyroglutamate, Decyl Pyroglutamate], in the data set “Rat plasma hydrolysis”, the half-life came to 1.7 min. Moreover, in data set [4], the “Primary Irritation Index” value was 0.9 ± 1.1 and the “Secondary Irritation Index” value is given as 0. Further, in data set [1], the “Flux of acyclovir ± SD” value is reported as 0.063 ± 0.01 μg/cm^2 /hr, the “% of acyclovir delivered in 48 hrs ± SD” value stood at 0.25 ± 0.03%, the “Flux of clonidine ± SD” value was determined as 0.31 ± 0.13 μg/cm^2 /hr and the “% of clonidine delivered in 48 hrs ± SD” value was 8.1 ± 2.1%. For the same compound, in data set [1], the “Flux of enalapril ± SD” value came to 0.15 ± 0.01 μg/cm^2 /hr and the “% of enalapril delivered in 48 hrs ± SD” value is on record as 4.3 ± 0.9%. In data set [2], the “Flux of 2,3-dihydro-5-hydroxy-6-(o-hydroxymethylcinnamyl)benzofuran ± SD” value is 0.70 ± 0.06 μg/cm^2 /hr. Also, the “% of 2,3-dihydro-5-hydroxy-6-(o-hydroxymethylcinnamyl)benzofuran delivered in 48 hrs ± SD” value in data set [2] (48 hrs) was 16.1 ± 3.0%. Besides, the flux of indomethacin in data set [3] (setting [7]) amounted to 0.477 μg/cm^2 /hr.
With `COc1ccc2c(c1)c(CC(=O)O)c(C)n2C(=O)c1ccc(Cl)cc1` [Indomethacin, indomethacin], the flux of indomethacin entry in data set [3] (no enhancer) was “non-detectable”.
For `C[C@]12CCC(=O)C=C1CC[C@@H]1[C@@H]2[C@@H](O)C[C@@]2(C)[C@H]1CC[C@]2(O)C(=O)CO` [Hydrocortisone], the flux of drug in data set [3] (setting [5]) was 0.338 μg/cm^2 /hr; in data set [3] (setting [6]), “Not detectable”.
As for `CC(C)=CCCC(C)=CCCC(C)=CCOC(=O)[C@@H]1CCC(=O)N1` [Farnesyl pyroglutamate], in data set [4], the “Primary Irritation Index” value is listed as 0 and the “Secondary Irritation Index” value stood at 0. In addition, the flux of indomethacin in data set [3] (setting [7]) turned out to be 0.317 μg/cm^2 /hr.
As to `CCCCCCCCCCCCN1CCCCCC1=O` [Azone, reference compound], in data set [4], the “Primary Irritation Index” value is listed as 4.0 ± 1.9 and the “Secondary Irritation Index” value worked out at 0.

As usually defined, the solubility is the dissolved amount per volume that the medium holds.

(Values after patent US4970206A, “Pyroglutamic acid esters used as dermal penetration enhancers for drugs” (Merck & Co., Inc., priority 1989, dated 1990).)
